Test results published in patent US11524940B1, “Inhibitors of cysteine proteases and methods of use thereof” (priority 2020, dated 2022).

How the values were obtained:
SARS-CoV2 Mpro = SARS-CoV2 Mpro (Severe acute respiratory syndrome coronavirus 2 (2019-nCoV) (SARS-CoV-2), UniProt P0DTD1); assay: COVID-19 (SARS-CoV2) Mpro enzymatic assay; type: biochemical; conditions: 25 nM Mpro, 25 μM substrate
229E Mpro = 229E Mpro (Human coronavirus 229E (HCoV-229E), UniProt P0C6X1); assay: 229E Mpro activity; type: biochemical; conditions: read-out: 229E Mpro EC50
Procedure: Compounds are assayed using standard methods to assess compound activity and IC50. […] The assay buffer contains 20 mM of Tris-HCl (pH 7.3), 100 mM of NaCl, 1 mM of EDTA, 5mM of TCEP and 0.1% BSA.

[1] = test system: Human Coronavirus (HCov) 229E; assay: HCoV 229E cytopathic effect (CPE) assay; type: cell-based; conditions: protection from virus-induced CPE, CellTiter Glo
Procedure: The antiviral activity of compounds is calculated based on the protection of the virus-induced CPE at each concentration normalized by the virus control.
Reagents and instruments used in this assay include luminescent cell viability assay kit CellTiter Glo (Promega) and Microplate Reader Synergy2 (BioTek).
Cytopathic effect (CPE) is measured by CellTiter Glo following the manufacturer's manual. The antiviral activity of compounds is calculated based on the protection of the virus-induced CPE at each concentration normalized by the virus control.

Chain of 229E Mpro (P0C6X1 2966-3267 limits assumed): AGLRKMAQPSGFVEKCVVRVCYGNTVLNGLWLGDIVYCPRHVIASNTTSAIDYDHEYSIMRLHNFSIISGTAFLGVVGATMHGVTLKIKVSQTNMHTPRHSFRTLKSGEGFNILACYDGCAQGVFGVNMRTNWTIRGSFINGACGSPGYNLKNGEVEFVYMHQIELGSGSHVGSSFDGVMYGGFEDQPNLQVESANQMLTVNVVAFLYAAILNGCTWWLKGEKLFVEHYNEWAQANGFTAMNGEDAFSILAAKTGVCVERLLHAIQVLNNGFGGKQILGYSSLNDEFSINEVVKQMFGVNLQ

Compound | IC50 (SARS-CoV2 Mpro) [µM] | EC50 (229E Mpro) [µM] | EC50 [1] [µM] | EC50 ([1]; human coronavirus 229E) [µM]
(S)-N-((S)-1-cyano-2-((S)-2-oxopyrrolidin-3-yl)ethyl)-1-(4-methoxy-1H-indole-2-carbonyl)-4,4-dimethylpyrrolidine-2- carboxamide [Compound 395] | 2 to 10 | 10 to 30 | 2 to 10 | –
COc1cccc2[nH]c(C(=O)N3CC4(CC3C(=O)N[C@H](C#N)C[C@@H]3CCCNC3=O)CC(F)(F)C4)cc12 (single isomer, unassigned) [723 (Isomer 2)] | < 2 | < 2 | – | < 2
N#C[C@H](C[C@@H]1CCCNC1=O)NC(=O)C1CC2(CCCCC2)CN1C(=O)c1cc2cccc(Cl)c2[nH]1 (single isomer, unassigned) [731 (Isomer 1)] | < 2 | < 2 | – | < 2
CC(C)C[C@H](NC(=O)c1cc2c(OC(F)F)cccc2[nH]1)C(=O)N[C@H](C#N)C[C@@H]1CCNC1=O [Compound 509, N-[(1S)-1-[[(1S)-1-cyano-2-[(3S)-2-oxopyrrolidin-3-yl]ethyl]carbamoyl]-3-methyl-butyl]-4-(difluoromethoxy)-1H-indole-2-carboxamide] | – | < 2 | – | < 2
COc1cccc2[nH]c(C(=O)N[C@@H](CC(C)C)C(=O)N[C@H](C#N)C[C@@H]3CCNC3=O)cc12 [Compound 101, N-[(1S)-1-[[(1S)-1-cyano-2-[(3S)-2-oxopyrrolidin-3-yl]ethyl]carbamoyl]-3-methyl-butyl]-4-methoxy-1H-indole-2-carboxamide] | – | < 2 | – | < 2
COc1cccc2[nH]c(C(=O)N[C@@H](CC(C)C)C(=O)N[C@@H](CC3CCNC3=O)C(C#N)NCc3ccccc3)cc12 (single isomer, unassigned) [507 (Isomer 1.1)] | – | < 2 | – | < 2
COc1cccc2[nH]c(C(=O)N[C@@H](CC3CCC3)C(=O)N[C@H](C#N)C[C@@H]3CCNC3=O)cc12 [Compound 577, N-[(1S)-2-[[(1S)-1-cyano-2-[(3S)-2-oxopyrrolidin-3-yl]ethyl]amino]-1-(cyclobutylmethyl)-2-oxo-ethyl]-4-methoxy-1H-indole-2-carboxamide] | – | < 2 | – | < 2
N#C[C@H](C[C@@H]1CCCNC1=O)NC(=O)C1CC2(CCCCC2)CN1C(=O)c1cc2ccc(Cl)cc2[nH]1 (single isomer, unassigned) [733 (Isomer 1)] | < 2 | < 2 | – | < 2
